Experimental data: US9169241B2, “Quinolinyloxyphenylsulfonamides” (Max-Planck-Gesellschaft Zur Forderung der Wissenschaften …, priority 2009, dated 2015)
Read-outs that look alike come from different tables or passages of the source.

Columns and labels:
Type in all cases: cell-based
[1] = system: PC3; experiment: Matrigel outgrowth assay/branching assay; details: IC100, PC3; Table Vb
Summary of the method: (§1)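 Read-out: microscopic images of invasive branching structures at 48 h, 72 h and 96 h. Cells sat on a 3 mg/ml Matrigel layer (set 1 h, 37° C) with compound at 3.125, 1.56 and 0.78 μM or DMSO. A concentration counts as positive only with complete branching inhibition.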

[2] = system: U373; experiment: Matrigel outgrowth assay/branching assay; details: IC100, U373; Table Vb
Summary of the method: as §1

[3] = system: SK-MEL28; experiment: Matrigel outgrowth assay/branching assay; details: IC100, SK-MEL28; Table Vb
Summary of the method: as §1

[4] = system: U87MG; experiment: Matrigel outgrowth assay/branching assay; details: IC100, U87MG; Table Vb
Summary of the method: as §1

[5] = system: NCI-H1299; experiment: Matrigel outgrowth assay/branching assay; details: IC100, NCI-H1299; Table Vb
Summary of the method: as §1

[6] = system: U138; experiment: Matrigel outgrowth assay/branching assay; details: IC100, U138; Table Vb
Summary of the method: as §1

[7] = system: MDA-MB435s; experiment: Cell vitality assay (ATP assay, CellTiter-Glo); details: Homo sapiens, MDA-MB-435S, Table IIc
Summary of the method: (§2)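 1000 cells/well incubated 72 h with compound at 12.5 down to 0.195 μM (twofold steps) or DMSO control. Viability measured as cellular ATP by CellTiter-Glo luminescence; IC50 taken as the concentration giving 50% of the DMSO-control ATP level.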

[8] = system: A549; experiment: Cell vitality assay (ATP assay, CellTiter-Glo); details: Homo sapiens, Table IIc
Summary of the method: as §2

[9] = system: H460; experiment: Cell vitality assay (ATP assay, CellTiter-Glo); details: Homo sapiens, NCI-H460, Table IIc
Summary of the method: as §2

[10] = system: PC3; experiment: Cell vitality assay (ATP assay, CellTiter-Glo); details: Homo sapiens, PC-3, Table IIb
Summary of the method: as §2

[11] = system: U373; experiment: Cell vitality assay (ATP assay, CellTiter-Glo); details: Homo sapiens, U373 MG, Table IIc
Summary of the method: as §2

[12] = system: DU145; experiment: Cell vitality assay (ATP assay, CellTiter-Glo); details: Homo sapiens, DU-145, Table IIb
Summary of the method: as §2

[13] = system: C8161; experiment: Cell vitality assay (ATP assay, CellTiter-Glo); details: Homo sapiens; C8161, 72 h; Table IIa; read-out: IC50 ATP-Assay after 72 h C8161
Summary of the method: as §2

[14] = system: SF763; experiment: Cell vitality assay (ATP assay, CellTiter-Glo); details: SF763, 72 h; Table IIa; read-out: IC50 ATP-Assay after 72 h SF763
Summary of the method: as §2

[15] = system: MDA-MB231; experiment: Cell vitality assay (ATP assay, CellTiter-Glo); details: Homo sapiens, MDA-MB-231
Summary of the method: as §2

[16] = system: A172; experiment: Cell vitality assay (ATP assay, CellTiter-Glo); details: Homo sapiens, A 172; A172, 72 h; Table IIa; read-out: IC50 ATP-Assay after 72 h A172
Summary of the method: as §2

[17] = system: Aspc-1; experiment: Cell vitality assay (ATP assay, CellTiter-Glo); details: Homo sapiens, ASPC1, Table IIb
Summary of the method: as §2

[18] = system: HT29; experiment: Cell vitality assay (ATP assay, CellTiter-Glo); details: Homo sapiens, HT-29, Table IIc
Summary of the method: as §2

[19] = system: 786-0; experiment: Cell vitality assay (ATP assay, CellTiter-Glo); details: Homo sapiens, Table IIb
Summary of the method: as §2

[20] = system: Panc-1; experiment: Cell vitality assay (ATP assay, CellTiter-Glo); details: Homo sapiens, Table IIb
Summary of the method: as §2

[21] = system: MiaPaca-2; experiment: Cell vitality assay (ATP assay, CellTiter-Glo); details: Homo sapiens, MIA PaCa-2, Table IIb
Summary of the method: as §2

[22] = system: U138; experiment: Cell vitality assay (ATP assay, CellTiter-Glo); details: U138, 72 h; Table IIa; read-out: IC50 ATP-Assay after 72 h U138
Summary of the method: as §2

[23] = system: MCF10A; experiment: Cell vitality assay (ATP assay, CellTiter-Glo); details: Homo sapiens, MCF-10A, Table IIb
Summary of the method: as §2

[24] = MDA-MB231, 72 h, Table IIa, read-out: IC50 ATP-Assay after 72 h MDA-MB231
[25] = cell vitality assay, MDA-MB231, Table IIc, read-out: IC50 MDA-MB231

| Compound | IC50 [7] | IC50 [8] | IC50 [9] | IC50 [10] | IC50 [12] | IC50 [15, 24] | IC50 [15, 25] | IC50 [17] | IC50 [18] | Total branching inhibition in Matrigel PC3 [1] | Total branching inhibition in Matrigel U373 [2] | Total branching inhibition in Matrigel SK-MEL28 [3] | Total branching inhibition in Matrigel U87MG [4] | Total branching inhibition in Matrigel NCI-H1299 [5] | Total branching inhibition in Matrigel U138 [6] | IC50 [11] | IC50 [13] | IC50 [14] | IC50 [16] | IC50 [22] | further results |
| --- | --- | --- | --- | --- | --- | --- | --- | --- | --- | --- | --- | --- | --- | --- | --- | --- | --- | --- | --- | --- | --- |
| COc1cc2c(Oc3ccc(NS(=O)(=O)c4cc(F)ccc4F)cc3F)ccnc2cc1OCCCN1CCCCC1 [Example 1, 2,5-Difluoro-N-{3-fluoro-4-[6-methoxy-7-(3-piperidin-1-yl-propoxy)-quinolin-4-yloxy]-phenyl}-benzenesulfonamide] | ≤ 12.5 µM | ≤ 12.5 µM | ≤ 12.5 µM | ≤ 12.5 µM | ≤ 12.5 µM | 12.5 to 50 µM | ≤ 12.5 µM | ≤ 12.5 µM | ≤ 12.5 µM | ++ (IC100≦12.5 μM) | ++ (IC100≦12.5 μM) | ++ (IC100≦12.5 μM) | + (IC100>12.5 μM) | ++ (IC100≦12.5 μM) | ++ (IC100≦12.5 μM) | ≤ 12.5 µM | 12.5 to 50 µM | ≤ 12.5 µM | ≤ 12.5 µM | ≤ 12.5 µM | IC50 [19]: 12.5 to 50 µM; IC50 [20]: 12.5 to 50 µM; IC50 [21]: ≤ 12.5 µM |
| COc1cc2c(Oc3ccc(NS(=O)(=O)c4cc(F)ccc4F)cc3F)ccnc2cc1OCCCN1CCN(C)CC1 [Example 12, 2,5-Difluoro-N-(3-fluoro-4-{6-methoxy-7-[3-(4-methyl-piperazin-1-yl)-propoxy]-quinolin-4-yloxy}-phenyl)-benzenesulfonamide] | ≤ 12.5 µM | ≤ 12.5 µM | ≤ 12.5 µM | ≤ 12.5 µM | ≤ 12.5 µM | – | ≤ 12.5 µM | ≤ 12.5 µM | ≤ 12.5 µM | ++ (IC100≦12.5 μM) | ++ (IC100≦12.5 μM) | ++ (IC100≦12.5 μM) | + (IC100>12.5 μM) | ++ (IC100≦12.5 μM) | ++ (IC100≦12.5 μM) | ≤ 12.5 µM | – | – | ≤ 12.5 µM | – | IC50 [19]: ≤ 12.5 µM; IC50 [20]: 12.5 to 50 µM; IC50 [21]: ≤ 12.5 µM |
| COc1cc2c(Oc3ccc(NS(=O)(=O)c4ccc(F)cc4F)cc3F)ccnc2cc1OCCCN1CCCC(C)C1 (stereo not drawn) [Example 47, 2,4-Difluoro-N-(3-fluoro-4-{6-methoxy-7-[3-(3-methyl-piperidin-1-yl)-propoxy]-quinolin-4-yloxy}-phenyl)-benzenesulfonamide] | – | – | – | – | – | 12.5 to 50 µM | – | – | – | – | – | – | – | – | – | – | 12.5 to 50 µM | ≤ 12.5 µM | ≤ 12.5 µM | ≤ 12.5 µM | – |
| COc1cc2c(Oc3ccc(NS(=O)(=O)c4ccccc4C(F)(F)F)cc3F)ccnc2cc1OCCCN1CCCCC1C (stereo not drawn) [Example 99, N-(3-Fluoro-4-{6-methoxy-7-[3-(2-methyl-piperidin-1-yl)-propoxy]-quinolin-4-yloxy}-phenyl)-2-trifluoromethyl-benzenesulfonamide] | – | – | – | – | – | ≤ 12.5 µM | – | – | – | – | – | – | – | – | – | – | 12.5 to 50 µM | ≤ 12.5 µM | ≤ 12.5 µM | ≤ 12.5 µM | – |

Continued, in another order:

| IC50 [7] | IC50 [8] | IC50 [9] | IC50 [10] | IC50 [12] | IC50 [15, 24] | IC50 [15, 25] | IC50 [17] | IC50 [18] | Compound | Total branching inhibition in Matrigel PC3 [1] | Total branching inhibition in Matrigel U373 [2] | Total branching inhibition in Matrigel SK-MEL28 [3] | Total branching inhibition in Matrigel U87MG [4] | Total branching inhibition in Matrigel NCI-H1299 [5] | Total branching inhibition in Matrigel U138 [6] | IC50 [11] | IC50 [13] | IC50 [14] | IC50 [16] | IC50 [22] | further results |
| --- | --- | --- | --- | --- | --- | --- | --- | --- | --- | --- | --- | --- | --- | --- | --- | --- | --- | --- | --- | --- | --- |
| – | – | – | – | – | ≤ 12.5 µM | – | – | – | COc1cc2c(Oc3ccc(NS(=O)(=O)c4cccc(Oc5ccccc5)c4)cc3F)ccnc2cc1OCCCN1CCN(C)CC1 [Example 14, N-(3-Fluoro-4-{6-methoxy-7-[3-(4-methyl-piperazin-1-yl)-propoxy]-quinolin-4-yloxy}-phenyl)-3-phenoxy-benzenesulfonamide] | – | – | – | – | – | ++ (IC100≦12.5 μM) | – | ≤ 12.5 µM | ≤ 12.5 µM | – | 12.5 to 50 µM | – |
| ≤ 12.5 µM | ≤ 12.5 µM | ≤ 12.5 µM | 12.5 to 50 µM | ≤ 12.5 µM | – | ≤ 12.5 µM | ≤ 12.5 µM | ≤ 12.5 µM | COc1cc2c(Oc3ccc(NS(=O)(=O)c4ccccc4C(F)(F)F)cc3F)ccnc2cc1OCCCN1CCN(C)CC1 [Example 24, N-(3-Fluoro-4-{6-methoxy-7-[3-(4-methyl-piperazin-1-yl)-propoxy]-quinolin-4-yloxy}-phenyl)-2-trifluoromethyl-benzenesulfonamide] | ++ (IC100≦12.5 μM) | ++ (IC100≦12.5 μM) | ++ (IC100≦12.5 μM) | + (IC100>12.5 μM) | ++ (IC100≦12.5 μM) | ++ (IC100≦12.5 μM) | ≤ 12.5 µM | – | – | – | – | IC50 [19]: ≤ 12.5 µM; IC50 [23]: ≤ 12.5 µM; IC50 [20]: 12.5 to 50 µM; IC50 [21]: ≤ 12.5 µM |
| ≤ 12.5 µM | ≤ 12.5 µM | ≤ 12.5 µM | ≤ 12.5 µM | ≤ 12.5 µM | – | ≤ 12.5 µM | ≤ 12.5 µM | ≤ 12.5 µM | COC(=O)c1sccc1S(=O)(=O)Nc1ccc(Oc2ccnc3cc(OCCCN4CCCC(C)C4)c(OC)cc23)c(F)c1 (stereo not drawn) [Example 66, 3-(3-Fluoro-4-{6-methoxy-7-[3-(3-methyl-piperidin-1-yl)-propoxy]-quinolin-4-yloxy}-phenylsulfamoyl)-thiophene-2-carboxylic acid methyl ester] | ++ (IC100≦12.5 μM) | ++ (IC100≦12.5 μM) | ++ (IC100≦12.5 μM) | ++ (IC100≦12.5 μM) | ++ (IC100≦12.5 μM) | ++ (IC100≦12.5 μM) | ≤ 12.5 µM | – | – | ≤ 12.5 µM | – | IC50 [19]: ≤ 12.5 µM; IC50 [20]: ≤ 12.5 µM; IC50 [21]: ≤ 12.5 µM |
| – | – | – | – | – | 12.5 to 50 µM | – | – | – | COc1cc2c(Oc3ccc(NS(=O)(=O)c4c(F)cccc4F)cc3F)ccnc2cc1OCCCN1CCOCC1 [Example 77, 2,6-Difluoro-N-{3-fluoro-4-[6-methoxy-7-(3-morpholin-4-yl-propoxy)-quinolin-4-yloxy]-phenyl}-benzenesulfonamide] | – | – | – | – | – | – | – | ≤ 12.5 µM | ≤ 12.5 µM | ≤ 12.5 µM | ≤ 12.5 µM | – |
| – | – | – | – | – | 12.5 to 50 µM | – | – | – | COc1cc2c(Oc3ccc(NS(=O)(=O)c4ccccc4C(F)(F)F)cc3Cl)ccnc2cc1OCCCN1CCN(C)CC1 [Example 87, N-(3-Chloro-4-{6-methoxy-7-[3-(4-methyl-piperazin-1-yl)-propoxy]-quinolin-4-yloxy}-phenyl)-2-trifluoromethyl-benzenesulfonamide] | – | – | – | – | – | – | – | ≤ 12.5 µM | ≤ 12.5 µM | ≤ 12.5 µM | ≤ 12.5 µM | – |
